Source: ChEMBL document CHEMBL1201862, “PubChem BioAssay data set” (2004)
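Grown in 96-well plates, cells were treated for 48 hours with each compound at five concentrations. Insufficient inhibition: endpoint recorded as highest concentration tested. GI50 is the concentration that inhibits growth by half.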 The source made the active and inactive calls. Rule as the data show it: active = GI50 up to about 1.1 µM and inactive = higher.

How the values were obtained:
Assay in all cases: NCI-60 cell line screen, 48 h
[1] = system: HT-29
[2] = system: RXF 393
[3] = system: LOX IMVI
[4] = system: NCI-H522
[5] = system: SF-295
[6] = system: BT-549
[7] = system: A498
[8] = system: UO-31
[9] = system: SNB-19
[10] = system: IGROV-1
[11] = system: HOP-92
[12] = system: RPMI-8226
[13] = system: Hs-578T
[14] = system: NCI-H226
[15] = system: HOP-62
[16] = system: HL-60
[17] = system: OVCAR-5
[18] = system: HCT-15
[19] = system: NCI/ADR-RES
[20] = system: Malme-3M

SMILES	GI50 [1]	GI50 [2]	GI50 [3]	GI50 [4]	GI50 [5]	GI50 [6]	GI50 [7]	GI50 [8]	GI50 [9]	GI50 [10]	GI50 [11]	GI50 [12]	GI50 [13]	GI50 [14]	GI50 [15]	GI50 [16]	GI50 [17]	GI50 [18]	GI50 [19]	GI50 [20]
COc1ccc([N+](=O)[O-])c2c(NCCCN(C)C)c3ccccc3nc12	0.07 µM (active)	0.0838 µM (active)	0.461 µM (active)	0.0286 µM (active)	0.107 µM (active)	0.701 µM (active)	0.0204 µM (active)	0.255 µM (active)	0.202 µM (active)	0.05 µM (active)	0.0782 µM (active)	0.218 µM (active)	0.682 µM (active)	0.225 µM (active)	0.0998 µM (active)	0.662 µM (active)	0.272 µM (active)	0.0935 µM	2.87 µM (inactive)	0.155 µM (active)
Oc1nc(S)nc(SCc2c(Cl)c(Cl)c(Cl)c(Cl)c2Cl)n1	28.1 µM (inactive)	16.9 µM (inactive)	> 63.1 µM (inactive)	18.2 µM (inactive)	> 100 µM (inactive)	> 80.2 µM (inactive)	> 59.4 µM (inactive)	30 µM (inactive)	> 100 µM (inactive)	69 µM (inactive)	77.8 µM (inactive)	7.18 µM (inactive)	> 59.2 µM (inactive)	> 69.8 µM (inactive)	38.7 µM (inactive)	20.1 µM (inactive)	98.2 µM (inactive)	49 µM	> 58.5 µM (inactive)	27.5 µM (inactive)
